The values below are quoted from earlier work in patent US20200338016A1, “COMBINATION BROAD-SPECTRUM ANTIBIOTIC PREPARATIONS FOR DRUG-RESISTANT PATHOGENS” (priority 2019, published 2020).

Where two headings read alike, the source gives them in different places.

Data set [1] relates to antibiotic-resistant streptococcus. To be noted: 32 strains of antibiotic-resistant streptococcus.
The next data set deals with MRSA. To be noted: for MBEC: Minimal Biofilm Eradication Concentration, single agent; for MIC: Minimal Inhibitory Concentration.
Data set [2] relates to antibiotic-resistant bacteria. To be noted: against antibiotic-resistant bacteria.
Data set [3] deals with multidrug resistant Klebsiella pneumonia. To be noted: twenty strains of multidrug resistant Klebsiella pneumonia.
For data set [4], the system named is antibiotic resistant bacteria. Particulars: four antibiotic resistant bacteria.
Data set [5] has as its system methicillin-resistant Staphylococus aureus.
The test system of data set [6] is extensively multidrug resistant Acinetobacter baumannii.
Data set [7] relates to multidrug-resistant Acinetobacter baumannii.
The subject of data set [8] is antibiotic resistant C. albicans.
The subject of data set [9] is methicillin-resistant Staphylococcus aureus. Particulars: MRSA.
Data set [10] deals with antibiotic resistant bacteria. Particulars: four strains of antibiotic resistant bacteria; extracted from horseradish.
Data set [11] deals with multidrug resistant Acinetobacter baumannii. To be noted: six strains of multidrug resistant Acinetobacter baumannii.
For data set [12], the system named is Aspergillus niger (ATCC 10578).
Data set [13] deals with Staphylococcus aureus (NCTC 6571).
In data set [14] the test system is Bacillus subtilis (NCTC 8236).
Data set [15] has as its system Proteus vulgaris (NCTC 4175).
Data set [16] relates to Escherichia coli (NCTC 10418).
In data set [17] the test system is Candida albicans (ATCC 10231).
Data set [18] relates to antibiotic resistant Staphylococcus aureus.

For `Cc1ccc(C(C)C)cc1O` [Carvacrol], the concentration that inhibits in data set [1] is reported as 256 micrograms per milliliter. In addition, in the data set on MRSA, the MBEC is 0.04 percentage of volume and the MIC is on record as 0.02 percentage of volume.

In the case of `O=C(O[C@@H]1Cc2c(O)cc(O)cc2O[C@@H]1c1cc(O)c(O)c(O)c1)c1cc(O)c(O)c(O)c1` [EGCG, epigallocatechin gallate], the “antibiotic properties (in words)” value in [2] is recorded as “antibiotic properties”. Further, in data set [3], the concentration that kills is listed as 1024 microgram per milliliter.

On to `C=CCc1ccc(O)c(OC)c1` [Eugenol], for which, in the data set on MRSA (Minimal Bactericidal Concentration), the MBC was 0.08 percentage of volume. In the data set on MRSA, the MBEC is reported as 0.08 percentage of volume and the MIC was 0.04 percentage of volume.

Consider `O=C(O)/C=C/c1ccc(O)c(O)c1` [caffeic acid], for which, in [3], the concentration that kills is 1024 microgram per milliliter.

Consider `Cn1c(=O)c2c(ncn2C)n(C)c1=O` [caffeine], for which the “antibiotic properties (in words)” value in data set [2] is “antibiotic properties”.

With `O=C(/C=C/c1ccc(O)c(O)c1)O[C@@H]1C[C@](O)(C(=O)O)C[C@@H](O)[C@H]1O` [chlorogenic acid], in data set [4], the concentration that kills was 5 milligrams per milliliter. In addition, the “antibiotic properties (in words)” value in data set [2] was “antibiotic properties”.

Regarding `CC(C)=CCCC(C)=CC=O` [citral], the concentration that kills in data set [5] is listed as 0.06%.

For `C[C@H]1[C@H]2CC[C@H]3[C@@H]4CC=C5C[C@@H](N(C)C)CC[C@]5(C)[C@H]4CC[C@]23CN1C` [conessine], in data set [6], the concentration that inhibits is on record as 10 milligrams per liter.

For the compound `O=C(O[C@@H]1O[C@@H]2COC(=O)c3cc(O)c(O)c(O)c3-c3c(cc(O)c(O)c3O)C(=O)O[C@H]([C@H]1O)[C@@H]2O)c1cc(O)c(O)c(O)c1` [corilagin], the concentration that inhibits in data set [7] is 1,000 micrograms per milliliter.

For the compound `O=C(O[C@@H]1Cc2c(O)cc(O)cc2O[C@@H]1c1ccc(O)cc1)c1cc(O)c(O)c(O)c1` [epiafzelechin gallate], the “antibiotic properties (in words)” value in data set [2] is recorded as “antibiotic properties”.

On to `Oc1ccc([C@H]2Oc3cc(O)cc(O)c3C[C@H]2O)cc1` [epiafzelechin], for which, in [2], the “antibiotic properties (in words)” value is given as “antibiotic properties”.

On to `O=C(O[C@@H]1Cc2c(O)cc(O)cc2O[C@@H]1c1ccc(O)c(O)c1)c1cc(O)c(O)c(O)c1` [epicatechin gallate], for which the “antibiotic properties (in words)” value in [2] is on record as “antibiotic properties”.

`Oc1cc(O)c2c(c1)O[C@H](c1cc(O)c(O)c(O)c1)[C@H](O)C2` [epigallocatechin]: the “antibiotic properties (in words)” value in data set [2] is “antibiotic properties”.

`COc1cc(/C=C/C(=O)O)ccc1O` [ferulic acid]: in data set [4], the concentration that kills is given as 5 milligrams per milliliter.

As to `Oc1cc(O)c2c(c1)O[C@H](c1cc(O)c(O)c(O)c1)[C@@H](O)C2` [gallocatechin], the “antibiotic properties (in words)” value in [2] is on record as “antibiotic properties”.

`CC(C)=CCC/C(C)=C/CO` [geraniol]: the concentration that inhibits in data set [8] is on record as 1580 micrograms per milliliter.

`CC1(C)[C@@H](O)CC[C@]2(C)[C@H]3C(=O)C=C4[C@@H]5C[C@@](C)(C(=O)O)CC[C@]5(C)CC[C@@]4(C)[C@]3(C)CC[C@@H]12` [glycerrhetinic acid]: the concentration that kills in data set [9] was 0.223 µM.

Turning to `O=c1c(O)c(-c2ccc(O)cc2)oc2cc(O)cc(O)c12` [kaempferol], the concentration that kills in data set [4] is reported as 5 milligrams per milliliter. Moreover, in data set [2], the “antibiotic properties (in words)” value was “antibiotic properties”.

In the case of `C=CC(C)(O)CCC=C(C)C` (centres unmarked) [linalool], the concentration that inhibits in data set [8] was 1580 micrograms per milliliter.

For the compound `O=c1cc(-c2ccc(O)c(O)c2)oc2cc(O)cc(O)c12` [luteolin], in [4], the concentration that kills is recorded as 5 milligrams per milliliter.

Consider `O=c1cc(-c2ccccc2)oc2c(O)c(O)cc(O)c12` [norwogonin], for which the concentration that inhibits in [7] is on record as 1,000 micrograms per milliliter.

Take `S=C=NCCc1ccccc1` [phenylethyl isothiocyanate]: the concentration that kills in data set [10] is on record as 2000 microgram per milliliter.

`O=c1c(O)c(-c2ccc(O)c(O)c2)oc2cc(O)cc(O)c12` [quercetin]: the concentration that kills in data set [4] was 5 milligrams per milliliter; in data set [3], 1024 microgram per milliliter. For the same compound, in data set [2], the “antibiotic properties (in words)” value is recorded as “antibiotic properties”.

Turning to `O=C(O[C@@H]1Cc2c(O)cc(O)cc2O[C@@H]1c1cc(O)c(=O)c2c(O)c(O)cc([C@H]3Oc4cc(O)cc(O)c4C[C@H]3OC(=O)c3cc(O)c(O)c(O)c3)c2c1)c1cc(O)c(O)c(O)c1` [theaflavin digallate], the “antibiotic properties (in words)” value in data set [2] was “antibiotic properties”.

As for `O=c1c(O)cc([C@H]2Oc3cc(O)cc(O)c3C[C@H]2O)cc2c([C@H]3Oc4cc(O)cc(O)c4C[C@H]3O)cc(O)c(O)c12` [theaflavin], the “antibiotic properties (in words)” value in data set [2] is given as “antibiotic properties”. Also, the concentration that inhibits in [11] is on record as 512 milligrams per liter.

Consider `Cn1cnc2c1c(=O)[nH]c(=O)n2C` [theobromine], for which, in data set [2], the “antibiotic properties (in words)” value was “antibiotic properties”.

In the case of `Cn1c(=O)c2[nH]cnc2n(C)c1=O` [theophylline], in [2], the “antibiotic properties (in words)” value was “antibiotic properties”.

For catechin, in data set [4], the concentration that kills was 5 milligrams per milliliter. Besides, the “antibiotic properties (in words)” value in data set [2] is reported as “antibiotic properties”.

On to catechin gallate, for which the “antibiotic properties (in words)” value in data set [2] is listed as “antibiotic properties”.

As for piliostigmol, the “inhibition (in words)” value in data set [12], in [13], in [14], in [15], in data set [16] and in [17] was “inhibits” throughout.

For pinene, in data set [18], the concentration that inhibits is given as 20 microliters per milliliter.

In the case of theaflavin gallate, in [2], the “antibiotic properties (in words)” value was “antibiotic properties”.

theasinesin A: in data set [2], the “antibiotic properties (in words)” value is “antibiotic properties”.

On to trechebulin, for which the concentration that inhibits in [7] is 1,000 micrograms per milliliter.
